Reference: patent publication US11773078B2, “Furin inhibitors” (Glaxosmithkline Intellectual Property Development Limited, priority 2018, dated 2023)

Tests used:
[1] = molecular target: T1, Furin (108-574-Tev-Flag-His) enzyme (Homo sapiens, UniProt P09958); test: Furin enzyme assay; type: biochemical
T1 construct: Furin (108-574-Tev-Flag-His) enzyme was expressed and purified from CHO cells; TEV cleavage site (C); FLAG (C); His (C); made in house; host or cells: CHO cells
Method in brief: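 Compounds ran as 11-point threefold dilutions (0.00017–10 μM final) against 40 pM furin, purified from CHO cells, for 2 h at room temperature. Buffer: 100 mM HEPES pH7.5 with 1 mM CaCl2 and 0.005% Triton X-100. Envision readout. Four-parameter curve gives pXC50.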

[2] = molecular target: T2, furin (endogenous protease) in U20S cells (Homo sapiens, UniProt P09958); test: Furin cell-based assay (image-based, Golgi-targeted GFP with BMP10 furin/PCSK cleavage site); details: 24-hour incubation, read-out: furin golgi cell pXC50 (converted);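 also: Read-out is mean GFP fluorescence of Golgi puncta per cell by high-content imaging, retained when furin inhibited, over an eleven-point 0.00017–10 µM series, four-parameter fit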
T2 construct: the endogenous protease cleaves GFP; endogenous in cells; host or cells: U2OS cells transduced with a BacMam reporter
T2 sequence (P09958 108-794): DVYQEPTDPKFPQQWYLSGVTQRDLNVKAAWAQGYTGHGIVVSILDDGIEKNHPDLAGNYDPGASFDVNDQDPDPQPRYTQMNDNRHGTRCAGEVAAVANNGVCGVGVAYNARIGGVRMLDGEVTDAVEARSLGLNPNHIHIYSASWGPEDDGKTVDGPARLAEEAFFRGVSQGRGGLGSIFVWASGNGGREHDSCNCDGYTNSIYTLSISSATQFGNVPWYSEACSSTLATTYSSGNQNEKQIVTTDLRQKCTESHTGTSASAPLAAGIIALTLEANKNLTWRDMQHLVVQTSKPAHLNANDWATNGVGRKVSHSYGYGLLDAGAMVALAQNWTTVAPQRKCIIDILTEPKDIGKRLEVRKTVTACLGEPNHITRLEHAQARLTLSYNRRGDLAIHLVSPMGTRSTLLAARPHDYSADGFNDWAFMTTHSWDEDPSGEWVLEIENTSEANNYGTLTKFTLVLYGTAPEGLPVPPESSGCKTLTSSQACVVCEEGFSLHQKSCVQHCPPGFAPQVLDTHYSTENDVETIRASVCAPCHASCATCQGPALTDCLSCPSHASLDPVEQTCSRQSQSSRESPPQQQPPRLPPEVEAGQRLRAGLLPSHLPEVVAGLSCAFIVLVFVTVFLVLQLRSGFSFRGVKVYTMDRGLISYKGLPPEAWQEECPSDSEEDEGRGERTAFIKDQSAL

T1 sequence (P09958 108-574): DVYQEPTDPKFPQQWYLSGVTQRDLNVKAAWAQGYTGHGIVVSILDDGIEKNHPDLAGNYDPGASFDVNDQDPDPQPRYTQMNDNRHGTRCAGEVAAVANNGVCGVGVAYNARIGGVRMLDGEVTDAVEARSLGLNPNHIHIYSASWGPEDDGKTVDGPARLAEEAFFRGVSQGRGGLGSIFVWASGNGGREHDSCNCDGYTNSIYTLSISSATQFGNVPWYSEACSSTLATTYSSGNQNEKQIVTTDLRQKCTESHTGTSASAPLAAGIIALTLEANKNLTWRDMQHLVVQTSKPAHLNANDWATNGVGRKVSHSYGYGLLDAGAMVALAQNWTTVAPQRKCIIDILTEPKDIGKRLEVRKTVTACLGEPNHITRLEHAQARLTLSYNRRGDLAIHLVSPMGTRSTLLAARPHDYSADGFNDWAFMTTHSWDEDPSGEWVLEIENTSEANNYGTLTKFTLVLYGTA

SMILES	furin enzyme pIC50 [1]	EC50 [2]	IC50 ([1]; read-out: furin enzyme pIC50 (converted))
CNC(=O)NCC1CCN(Cc2cc(Oc3cnc(N4CCN(CC(C)C(=O)O)CC4)nc3)cc(-c3cc(Cl)cc(Cl)c3)c2)CC1 (stereo not shown) [Example 292, 3-(4-(5-((3′,5′-dichloro-5-((4-((3-methylureido)methyl)piperidin-1-yl)methyl)-[1,1′-biphenyl]-3-yl)oxy)pyrimidin-2-yl)piperazin-1-yl)-2-methylpropanoic acid]	9.4	0.0501 µM	
CC(=O)NCC1CCN(Cc2cc(Oc3ccc(N4CCN(CCS(C)(=O)=O)CC4)nc3)cc(-c3cc(Cl)cc(Cl)c3)c2)CC1 [Example 293, N-((1-((3′,5′-dichloro-5-((6-(4-(2-(methylsulfonyl)ethyl)piper-1-yl)pyridin-3-yl)oxy)-[1,1′-biphenyl]-3-yl)methyl)piperidin-4-yl)methyl)acetamide]	8.2	0.158 µM	
CC(=O)NCC1CCN(Cc2cc(Oc3cnc(N4CC5CCC(C4)N5CCC(=O)O)nc3)nc(-c3cc(Cl)cc(Cl)c3)c2)CC1 [Example 296, 3-(3-(5-((4-((4-(acetamidomethyl)piperidin-1-yl)methyl)-6-(3,5-dichlorophenyl)pyridin-2-yl)oxy)pyrimidin-2-yl)-3,8-diazabicyclo[3.2.1]octan-8-yl)propanoic acid]	10.6	0.01 µM	
C[C@@H](O)CN1CCN(c2ccc(Oc3cc(CN4CCC(CC(=O)O)CC4)cc(-c4cc(Cl)cc(Cl)c4)n3)cn2)CC1 [Example 299, (R)-2-(1-((2-(3,5-dichlorophenyl)-6-((6-(4-(2-hydroxypropyl)piperazin-1-yl)pyridin-3-yl)oxy)pyridin-4-yl)methyl)piperidin-4-yl)acetic acid]	8.5	0.0316 µM	
O=C(O)CC1CCN(Cc2cc(Oc3ccc(N4CCN(CCO)CC4)nc3)nc(-c3cc(Cl)cc(Cl)c3)c2)CC1 [Example 300, 2-(1-((2-(3,5-dichlorophenyl)-6-((6-(4-(2-hydroxyethyl)piperazin-1-yl)pyridin-3-yl)oxy)pyridin-4-yl)methyl)piperidin-4-yl)acetic acid]	9.1	0.02 µM	
CC(=O)NCC1CCN(Cc2cc(Oc3cnc(N4CCN(C[C@@H](C)O)CC4)nc3)nc(-c3cc(Cl)cc(Cl)c3)c2)CC1 [Example 302]	9.6	0.00794 µM	
CC(=O)NCC1CCN(Cc2cc(Oc3cnc(N4CCN(CC(O)CF)CC4)nc3)nc(-c3cc(Cl)cc(Cl)c3)c2)CC1 (stereo not shown) [Example 304, N-((1-((2-(3,5-dichlorophenyl)-6-((2-(4-(3-fluoro-2-hydroxypropyl)piperazin-1-yl)pyrimidin-5-yl)oxy)pyridin-4-yl)methyl)piperidin-4-yl)methyl)acetamide]	8.8	0.00251 µM	
CNC(=O)NCC1CCN(Cc2cc(Oc3ccc(N4CCN(C[C@@H](C)O)CC4)nc3)nc(-c3cc(Cl)cc(Cl)c3)c2)CC1 [Example 309, (R)-1-((1-((2-(3,5-dichlorophenyl)-6-((6-(4-(2-hydroxypropyl)piperazin-1-yl)pyridin-3-yl)oxy)pyridin-4-yl)methyl)piperidin-4-yl)methyl)-3-methylurea]	9.8	0.00251 µM	
COC(=O)NCC1CCN(Cc2cc(Oc3cnc(N4CCN(C[C@@H](C)O)CC4)nc3)nc(-c3cc(Cl)cc(Cl)c3)c2)CC1 [Example 312, (R)-methyl ((1-((2-(3,5-dichlorophenyl)-6-((2-(4-(2-hydroxypropyl)piperazin-1-yl)pyrimidin-5-yl)oxy)pyridin-4-yl)methyl)piperidin-4-yl)methyl)carbamate]	9.7	0.0158 µM	
CC(=O)NCC1CCN(Cc2cc(Oc3cnc(N4CCN(CCO)CC4)nc3)nc(-c3cc(F)cc(Cl)c3)c2)CC1 [Example 315, N-((1-((2-(3-chloro-5-fluorophenyl)-6-((2-(4-(2-hydroxyethyl)piperazin-1-yl)pyrimidin-5-yl)oxy)pyridin-4-yl)methyl)piperidin-4-yl)methyl)acetamide]	9.2	0.0158 µM	

Further lines, results first:

furin enzyme pIC50 [1]	EC50 [2]	IC50 ([1]; read-out: furin enzyme pIC50 (converted))	SMILES
10.1	0.02 µM		COC(=O)NCC1CCN(Cc2cc(Oc3cnc(N4CCN(CCC(=O)O)[C@@H](C)C4)nc3)nc(-c3cc(Cl)cc(Cl)c3)c2)CC1 [Example 294, (S)-3-(4-(5-((6-(3,5-dichlorophenyl)-4-((4-(((methoxycarbonyl)amino)methyl)piperidin-1-yl)methyl)pyridin-2-yl)oxy)pyrimidin-2-yl)-2-methylpiperazin-1-yl)propanoic acid]
9.5	0.000794 µM		CNC(=O)NCC1CCN(Cc2cc(Oc3cnc(N4CCN(CCC(C)O)CC4)nc3)nc(-c3cc(Cl)cc(Cl)c3)c2)CC1 (stereo not shown) [Example 295, 1-((1-((2-(3,5-dichlorophenyl)-6-((2-(4-(3-hydroxybutyl)piperazin-1-yl)pyrimidin-5-yl)oxy)pyridin-4-yl)methyl)piperidin-4-yl)methyl)-3-methylurea]
9.4	0.00501 µM		COC(=O)CCN1CCN(c2ncc(Oc3cc(CN4CCC(CNC(C)=O)CC4)cc(-c4cc(Cl)cc(Cl)c4)n3)cn2)CC1 [Example 297, methyl 3-(4-(5-((4-((4-(acetamidomethyl)piperidin-1-yl)methyl)-6-(3,5-dichlorophenyl)pyridin-2-yl)oxy)pyrimidin-2-yl)piperazin-1-yl)propanoate]
9.6	0.0398 µM		CC(CC1CCN(Cc2cc(Oc3cnc(N4CCN(C[C@@H](C)O)CC4)nc3)nc(-c3cc(Cl)cc(Cl)c3)c2)CC1)C(=O)O (stereo partly drawn) [Example 301, 3-(1-((2-(3,5-dichlorophenyl)-6-((2-(4-((R)-2-hydroxypropyl)piperazin-1-yl)pyrimidin-5-yl)oxy)pyridin-4-yl)methyl)piperidin-4-yl)-2-methylpropanoic acid]
9.2	0.00251 µM		CC(=O)NCC1CCN(Cc2cc(Oc3cnc(N4CCN(CC(C)(C)O)CC4)nc3)nc(-c3cc(Cl)cc(Cl)c3)c2)CC1 [Example 303, N-((1-((2-(3,5-dichlorophenyl)-6-((2-(4-(2-hydroxy-2-methylpropyl)piperazin-1-yl)pyrimidin-5-yl)oxy)pyridin-4-yl)methyl)piperidin-4-yl)methyl)acetamide]
8.7	0.01 µM		CNC(=O)OCC1CCN(Cc2cc(Oc3ccc(N4CCN(C[C@@H](C)O)CC4)nc3)nc(-c3cc(Cl)cc(Cl)c3)c2)CC1 [Example 305, (R)-(1-((2-(3,5-dichlorophenyl)-6-((6-(4-(2-hydroxypropyl)piperazin-1-yl)pyridin-3-yl)oxy)pyridin-4-yl)methyl)piperidin-4-yl)methyl methylcarbamate]
9.4	0.002 µM		CNC(=O)OCC1CCN(Cc2cc(Oc3cnc(N4CCN(CCO)CC4)nc3)nc(-c3cc(Cl)cc(Cl)c3)c2)CC1 [Example 307, (1-((2-(3,5-dichlorophenyl)-6-((2-(4-(2-hydroxyethyl)piperazin-1-yl)pyrimidin-5-yl)oxy)pyridin-4-yl)methyl)piperidin-4-yl)methyl methylcarbamate]
9.3	0.0126 µM		CNC(=O)OCC1CCN(Cc2cc(Oc3cnc(N4CCN(C[C@@H](C)O)CC4)nc3)nc(-c3cc(Cl)cc(Cl)c3)c2)CC1 [Example 308, (R)-(1-((2-(3,5-dichlorophenyl)-6-((2-(4-(2-hydroxypropyl)piperazin-1-yl)pyrimidin-5-yl)oxy)pyridin-4-yl)methyl)piperidin-4-yl)methyl methylcarbamate]
9.6	0.00398 µM		CNC(=O)NCC1CCN(Cc2cc(Oc3cnc(N4CCN(C[C@@H](C)O)CC4)nc3)nc(-c3cc(Cl)cc(Cl)c3)c2)CC1 [Example 310, (R)-1-((1-((2-(3,5-dichlorophenyl)-6-((2-(4-(2-hydroxypropyl)piperazin-1-yl)pyrimidin-5-yl)oxy)pyridin-4-yl)methyl)piperidin-4-yl)methyl)-3-methylurea]
8.9	0.0158 µM		COC(=O)NCC1CCN(Cc2cc(Oc3cnc(N4CCN(CCO)CC4)nc3)nc(-c3cc(Cl)cc(Cl)c3)c2)CC1 [Example 311, methyl ((1-((2-(3,5-dichlorophenyl)-6-((2-(4-(2-hydroxyethyl)piperazin-1-yl)pyrimidin-5-yl)oxy)pyridin-4-yl)methyl)piperidin-4-yl)methyl)carbamate]
	0.0158 µM	< 0.000158 µM	CNC(=O)NCC1CCN(Cc2cc(Oc3cnc(N4CCN(CCO)CC4)nc3)cc(-c3cc(Cl)cc(Cl)c3)c2)CC1 [Example 313, 1-((1-((3′,5′-dichloro-5-((2-(4-(2-hydroxyethyl)piperazin-1-yl)pyrimidin-5-yl)oxy)-[1,1′-biphenyl]-3-yl)methyl)piperidin-4-yl)methyl)-3-methylurea]
8.9	0.0316 µM		O=C(O)CCC1CCN(Cc2cc(Oc3ccc(N4CCN(CCO)CC4)nc3)nc(-c3cc(Cl)cc(Cl)c3)c2)CC1 [Example 314, 3-(1-((2-(3,5-dichlorophenyl)-6-((6-(4-(2-hydroxyethyl)piperazin-1-yl)pyridin-3-yl)oxy)pyridin-4-yl)methyl)piperidin-4-yl)propanoic acid]
10.2	0.1 µM		CC(=O)NCC1CCN(Cc2cc(Oc3cnc(N4CCN(CC(O)C(=O)O)CC4)nc3)nc(-c3cc(Cl)cc(Cl)c3)c2)CC1 (stereo not shown) [Example 316, 3-(4-(5-((4-((4-(acetamidomethyl)piperidin-1-yl)methyl)-6-(3,5-dichlorophenyl)pyridin-2-yl)oxy)pyrimidin-2-yl)piperazin-1-yl)-2-hydroxypropanoic acid]
